Test results reported in patent US9469615B2, “Quinoxalines and AZA-quinoxalines as CRTH2 receptor modulators” (Merck Sharp & Dohme Corp., priority 2010, dated 2016).

molecular target: T1, hCRTH2 (Homo sapiens, UniProt Q9Y5Y4); assay: Radioligand binding assay ([3H]PGD2 competition, HEK-hCRTH2 membranes); conditions: [3H]PGD2 binding, rated A-E (Table A)
T1 construct: expressed in transfected cells; host or cells: HEK (human embryonic kidney) cells expressing hCRTH2; membrane preparation
T1 sequence (Q9Y5Y4 1-395): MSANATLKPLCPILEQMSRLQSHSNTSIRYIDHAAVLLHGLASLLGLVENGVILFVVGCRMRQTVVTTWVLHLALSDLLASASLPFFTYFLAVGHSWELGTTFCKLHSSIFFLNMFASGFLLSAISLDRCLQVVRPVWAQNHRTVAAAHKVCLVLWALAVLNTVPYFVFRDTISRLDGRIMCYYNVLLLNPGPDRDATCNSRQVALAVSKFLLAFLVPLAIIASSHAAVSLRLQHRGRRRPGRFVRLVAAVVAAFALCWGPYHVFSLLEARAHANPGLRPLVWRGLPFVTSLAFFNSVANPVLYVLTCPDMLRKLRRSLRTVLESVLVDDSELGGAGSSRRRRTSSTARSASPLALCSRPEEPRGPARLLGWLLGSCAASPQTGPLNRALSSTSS
How it was run: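 Competition binding with 3.0 nM [3H]PGD2 and 8-20 μg HEK-hCRTH2 membrane protein in 50 mM Tris-HCl pH 7.4, 1 mM EDTA, 2 mM MnCl2, 1% Me2SO, 60 min at room temperature. Nonspecific binding defined with 10 μM PGD2; bound radioactivity counted after filtration.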

| SMILES | Ki [nM] |
| --- | --- |
| O=C(O)CCCCc1nc2cc(C(=O)N[C@H]3CCCc4cc(Cl)ccc43)ccc2nc1-c1ccc(F)cc1 [compound 222, 7-[[(6-chloro-1,2,3,4-tetrahydro-1(S)-naphthalenyl)amino]carbonyl]-3-(4-fluorophenyl)-2-quinoxalinepentanoic acid] | 2.1 to 20 |
| O=C(O)CCCCc1nc2cc(C(=O)N[C@@H]3CCc4cc(F)ccc43)ccc2nc1-c1ccc(F)cc1 [compound 223, 7-[[(5-fluoro-2,3-dihydro-1H-inden-1(R)-yl)amino]carbonyl]-3-(4-fluorophenyl)-2-quinoxalinepentanoic acid] | 0.1 to 2 |
| O=C(O)CCCCc1nc2cc(C(=O)N[C@H]3CCc4cc(F)ccc43)ccc2nc1-c1ccc(F)cc1 [compound 224, 7-[[(5-fluoro-2,3-dihydro-1H-inden-1(5)-yl)amino]carbonyl]-3-(4-fluorophenyl)-2-quinoxalinepentanoic acid] | 0.1 to 2 |
| O=C(O)CCCCc1nc2cc(C(=O)N[C@@H]3CCc4cc(Cl)ccc43)ccc2nc1-c1ccc(F)cc1 [compound 225, 7-[[(5-chloro-2,3-dihydro-1H-inden-1(R)-yl)amino]carbonyl]-3-(4-fluorophenyl)-2-quinoxalinepentanoic acid] | 0.1 to 2 |
| O=C(O)CCCCc1nc2cc(C(=O)N[C@H]3CCc4cc(Cl)ccc43)ccc2nc1-c1ccc(F)cc1 [compound 226, 7-[[(5-chloro-2,3-dihydro-1H-inden-1(S)-yl)amino]carbonyl]-3-(4-fluorophenyl)-2-quinoxalinepentanic acid] | 0.1 to 2 |
| O=C(O)CCCCc1nc2cc(C(=O)N[C@@H](c3ccc(Cl)cc3)C(F)(F)F)ccc2nc1-c1ccc(F)cc1 [compound 227, 7-[[[1(S)-(4-chlorophenyl)-2,2,2-trifluoroethyl]amino]carbonyl]-3-(4-fluorophenyl)-2-quinoxalinepentanoic acid] | 0.1 to 2 |
| O=C(O)CCCCc1nc2cc(C(=O)N[C@H](c3ccc(Cl)cc3)C(F)(F)F)ccc2nc1-c1ccc(F)cc1 [compound 228, 7-[[[1(R)-(4-chlorophenyl)-2,2,2-trifluoroethyl]amino]carbonyl]-3-(4-fluorophenyl)-2-quinoxalinepentanoic acid] | 0.1 to 2 |
| O=C(O)CCCCc1nc2cc(C(=O)N[C@@H]3CCc4ccccc43)ccc2nc1-c1ccc(F)cc1 [compound 229, 7-[[(2,3-dihydro-1H-inden-1(R)-yl)amino]carbonyl]-3 - (4-fluorophenyl)-2-quinoxalinepentanoic acid] | 0.1 to 2 |
| O=C(O)CCCCc1nc2cc(C(=O)N[C@H]3CCc4ccccc43)ccc2nc1-c1ccc(F)cc1 [compound 230, 7-[[(2,3-dihydro-1H-inden-1(S)-yl)amino]carbonyl]-3-(4-fluorophenyl)-2-quinoxalinepentanoic acid] | 0.1 to 2 |
| C[C@@H](NC(=O)c1ccc2nc(-c3ccccc3)c(CC[C@@H]3C[C@H]3C(=O)O)nc2c1)c1ccc(Cl)cc1 [compound 232, trans-2-[2-[7-[[[1(R)-(4-chlorophenyl)ethyl]amino]carbonyl]-3-phenyl-2-quinoxalinyl]ethyl] cyclopropanecarboxylic acid] | 2.1 to 20 |
| C[C@@H](NC(=O)c1ccc2nc(-c3ccccc3)c(CC[C@H]3C[C@@H]3C(=O)O)nc2c1)c1ccc(Cl)cc1 [compound 233, trans-2-[2-[7-[[[1(R)-(4-chlorophenyl)ethyl]amino]carbonyl]-3-phenyl-2-quinexalinyl]ethyl]cyclopropanecarboxylic acid] | 2.1 to 20 |
| C[C@@H](NC(=O)c1ccc2nc(-c3ccccc3)c(CCCCC(=O)O)nc2c1)c1ccc(F)cc1 [compound 234, 7-[[[1(R)-(4-fluorophenyl)ethyl]amino]carbonyl]-3-phenyl-2-quinoxalinepentanoic acid] | 2.1 to 20 |
| C[C@H](NC(=O)c1ccc2nc(-c3ccccc3)c(CCCCC(=O)O)nc2c1)c1ccc(F)cc1 [compound 235, 7-[[[1(S)-(4-fluorophenyl)ethyl]amino]carbonyl]-3-phenyl-2-quinoxalinepentanoic acid] | 2.1 to 20 |
| C[C@H](c1ccc(F)cc1)N(C)C(=O)c1ccc2nc(-c3ccccc3)c(CCCCC(=O)O)nc2c1 [compound 236, 7-[[[1(R)-(4-fluorophenyl)ethyl]methylamino]carbonyl]-3-phenyl-2-quinoxalinepentanoic acid] | 2.1 to 20 |
| C[C@@H](c1ccc(F)cc1)N(C)C(=O)c1ccc2nc(-c3ccccc3)c(CCCCC(=O)O)nc2c1 [compound 237, 7-[[[1(S)-(4-fluorophenyl)ethyl]methylamino]carbonyl]-3-phenyl-2-quinoxalinepentanoic acid] | 2.1 to 20 |
| C[C@H](c1ccc(Cl)cc1)N(C)C(=O)c1ccc2nc(-c3ccccc3)c(CCCCC(=O)O)nc2c1 [compound 238, 7-[[[1(R)-(4-chlorophenyl)ethyl]methylamino]carbonyl]-3-phenyl-2-quinoxalinepentanoic acid] | 2.1 to 20 |

| SMILES | Ki [nM] |
| --- | --- |
| C[C@@H](c1ccc(Cl)cc1)N(C)C(=O)c1ccc2nc(-c3ccccc3)c(CCCCC(=O)O)nc2c1 [compound 239, 7-[[[1(S)-(4-chlorophenyl)ethyl]methylamino]carbonyl]-3-phenyl-2-quinoxalinepentanoic acid] | 2.1 to 20 |
| C[C@H](c1ccc(F)cc1)N(C)C(=O)c1ccc2nc(-c3ccc(F)cc3)c(CCCCC(=O)O)nc2c1 [compound 240, 3-(4-fluorophenyl)-7-[[[1(R)-(4-fluorophenyl)ethyl]methylamino]carbonyl]-2-quinoxalinepentanoic acid] | 2.1 to 20 |
| C[C@@H](c1ccc(F)cc1)N(C)C(=O)c1ccc2nc(-c3ccc(F)cc3)c(CCCCC(=O)O)nc2c1 [compound 241, 3-(4-fluorophenyl)-7-[[[1(S)-(4-fluorophenyl)ethyl]methylamino]carbonyl]-2-quinoxalinepentanoic acid] | 2.1 to 20 |
| C[C@H](c1ccc(Cl)cc1)N(C)C(=O)c1ccc2nc(-c3ccc(F)cc3)c(CCCCC(=O)O)nc2c1 [compound 242, 7-[[[1(R)-(4-chlorophenyl)ethyl]methylamino]carbonyl]-3-(4-fluorophenyl)-2-quinoxalinepentanoic acid] | 2.1 to 20 |
| C[C@@H](c1ccc(Cl)cc1)N(C)C(=O)c1ccc2nc(-c3ccc(F)cc3)c(CCCCC(=O)O)nc2c1 [compound 243, 7-[[[1(S)-(4-chlorophenyl)ethyl]methylamino]carbonyl]-3-(4-fluorophenyl)-2-quinoxalinepentanoic acid] | 2.1 to 20 |
| O=C(O)CCCCc1nc2cc(C(=O)N3CCC(c4ncccn4)CC3)ccc2nc1-c1ccc(F)cc1 [compound 244, 3-(4-fluorophenyl)-7-[[4-(2-pyrimidinyl)-1-piperidinyl]carbonyl]-2-quinoxalinepentanoic acid] | 2.1 to 20 |
| O=C(O)CCCCc1nc2cc(C(=O)N3CCC(c4ncccn4)CC3)ccc2nc1-c1ccccc1 [compound 245, 3-phenyl-7-[[4-(2-pyrimidinyl)-1-piperidinyl]carbonyl]-2-quinoxalinepentanoic acid] | 2.1 to 20 |
| N#Cc1ccc(C2CN(C(=O)c3ccc4nc(-c5ccc(F)cc5)c(CCCCC(=O)O)nc4c3)C2)cc1 [compound 246, 7-[[3-(4-cyanophenyl)-1-azetidinyl]carbonyl]-3-(4-fluorophenyl)-2-quinoxalinepentanoic acid] | 0.1 to 2 |
| O=C(O)CCCCc1nc2cc(C(=O)N3CC(c4nc5ccccc5[nH]4)C3)ccc2nc1-c1ccccc1 [compound 247, 7-[[3-(1H-benzimidazol-2-yl)-1-azetidinyl]carbonyl]-3-phenyl-2-quinoxalinepentanoic acid] | 2.1 to 20 |
| O=C(O)CCCCc1nc2cc(C(=O)N3CC(c4nc5ccccc5o4)C3)ccc2nc1-c1ccc(F)cc1 [compound 248, 7-[[3-(2-benzoxazolyl)-1-azetidinyl]carbonyl]-3-(4-fluorophenyl)-2-quinoxalinepentanoic acid] | 2.1 to 20 |
| O=C(O)CCCCc1nc2cc(C(=O)N3CC(c4ccc(F)c(F)c4)C3)ccc2nc1-c1ccccc1 [compound 249, 7-[[3-(3,4-difluorophenyl)-1-azetidinyl]carbonyl]-3-phenyl-2-quinoxalinepentanoic acid] | 0.1 to 2 |
| O=C(O)CCCCc1nc2cc(C(=O)N3CC(c4ccc(F)cc4)C3)ccc2nc1-c1ccccc1 [compound 250, 7-[[3-(4-fluorophenyl)-1-azetidinyl]carbonyl]-3-phenyl-2-quinoxalinepentanoic acid] | 0.1 to 2 |
| O=C(O)CCCCc1nc2cc(C(=O)N3CC(c4cccc(F)c4)C3)ccc2nc1-c1ccccc1 [compound 251, 7-[[3-(3-fluorophenyl)-1-azetidinyl]carbonyl]-3-phenyl-2-quinoxalinepentanoic acid] | 0.1 to 2 |
| O=C(O)CCCCc1nc2cc(C(=O)N3CC(c4ccc(Cl)cc4)C3)ccc2nc1-c1ccccc1 [compound 252, 7-[[3-(4-chlorophenyl)-1-azetidinyl]carbonyl]-3-phenyl-2-quinoxalinepentanoic acid] | 0.1 to 2 |
| O=C(O)CCCCc1nc2cc(C(=O)N3CC(c4cccc(Cl)c4)C3)ccc2nc1-c1ccccc1 [compound 253, 7-[[3-(3-chlorophenyl)-1-azetidinyl]carbonyl]-3-phenyl-2-quinoxalinepentanoic acid] | 0.1 to 2 |

same assay, conditions: [3H]PGD2 binding, values in text

| SMILES | Ki [nM] |
| --- | --- |
| N#Cc1ccc(C2CN(C(=O)c3ccc4nc(-c5ccc(F)cc5)c(CCCCC(=O)O)nc4c3)C2)cc1 [compound 246, 7-[[3-(4-cyanophenyl)-1-azetidinyl]carbonyl]-3-(4-fluorophenyl)-2-quinoxalinepentanoic acid] | 1.9 |
| O=C(O)CCCCc1nc2cc(C(=O)N3CC(c4cccc(F)c4)C3)ccc2nc1-c1ccccc1 [compound 251, 7-[[3-(3-fluorophenyl)-1-azetidinyl]carbonyl]-3-phenyl-2-quinoxalinepentanoic acid] | 1 |
